Source: ChEMBL document CHEMBL1121512, “1-[Ethoxyamino)methyl]-1,3,4,5-tetrahydro-7,8-dimethoxy-2-benzoxepins: a new class of antianaphylactic agents” (1980)

Key:
Assay type in all cases: functional
[1] = tested on: Rattus norvegicus; test: % inhibition against anaphylactic response in rat at dose 50 mg/kg administered orally after 120 min; conditions: 2 h, route oral
[2] = tested on: Rattus norvegicus; test: % inhibition against anaphylactic response in rat at dose 50 mg/kg administered orally after 60 min; conditions: 1 h, route oral
[3] = tested on: Rattus norvegicus; test: % inhibition against anaphylactic response in rat at dose 10 mg/kg administered orally after 60 min; conditions: 1 h, route oral

COc1cc2c(cc1OC)C(COCCN1CCN(c3ccc(F)cc3)CC1)OCCC2 (stereo unspecified)
inhibition in vivo at 50 mg/kg [1]: 0%
inhibition in vivo at 50 mg/kg [2]: 52%

COc1cc2c(cc1OC)C(COCCN1CCN(c3ccccc3OC)CC1)OCCC2 (stereo unspecified)
inhibition in vivo at 50 mg/kg [1]: 20%
inhibition in vivo at 50 mg/kg [2]: 100%

COc1cc2c(cc1OC)C(COCCN1CCN(c3ccccn3)CC1)OCCC2 (stereo unspecified)
inhibition in vivo at 50 mg/kg [1]: 35%
inhibition in vivo at 50 mg/kg [2]: 94%

COc1cc2c(cc1OC)C(COCCN1CCN(C)CC1)OCCC2 (stereo unspecified)
inhibition in vivo at 50 mg/kg [1]: 0%
inhibition in vivo at 50 mg/kg [2]: 0%

COc1cc2c(cc1OC)C(COCCNCCO)OCCC2 (stereo unspecified)
inhibition in vivo at 50 mg/kg [1]: 0%
inhibition in vivo at 50 mg/kg [2]: 0%

O=C(O)c1cc(=O)c2c(OCC(O)COc3cccc4oc(C(=O)O)cc(=O)c34)cccc2o1 [CROMOLYN SODIUM]
inhibition in vivo at 10 mg/kg [3]: 100%
